Experiments:
[1] = biological target: T1, IKZF1 (Homo sapiens, UniProt Q13422+Q96SW2); assay: HEK293 HiBiT in vitro degradation of IKZF1; assay type: cell-based; settings: for DC50: 18-24 hr incubation, normalized to DMSO control, read-out: IKZF1 EC50; for Dmax: HEK293, HEK293 HiBiT
T1 construct: expressed in transfected cells
In short: (§1)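 Stable HEK293 reporter pools, each with one integrated tet-inducible copy of a HiBiT-tagged target, were induced with doxycycline overnight at 37 °C. After 18-24 h with compound dilution series, Nano-Glo lysis and luminescence yielded EC50 and Dmax values.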

[2] = biological target: IKZF2 (Homo sapiens, UniProt Q96SW2+Q9UKS7); assay: HEK293 HiBiT in vitro degradation of IKZF2; assay type: cell-based; set-up: expressed in transfected cells; settings: for Dmax: HEK293, HEK293 HiBiT; for DC50: 18-24 hr incubation, normalized to DMSO control, read-out: IKZF2 EC50
In short: as §1

[3] = maximum degradation at the highest concentration tested
[4] = HEK293 HiBiT, maximum degradation at the highest concentration tested

IKZF2, sequence (Q9UKS7 1-500 isoform Q9UKS7-2): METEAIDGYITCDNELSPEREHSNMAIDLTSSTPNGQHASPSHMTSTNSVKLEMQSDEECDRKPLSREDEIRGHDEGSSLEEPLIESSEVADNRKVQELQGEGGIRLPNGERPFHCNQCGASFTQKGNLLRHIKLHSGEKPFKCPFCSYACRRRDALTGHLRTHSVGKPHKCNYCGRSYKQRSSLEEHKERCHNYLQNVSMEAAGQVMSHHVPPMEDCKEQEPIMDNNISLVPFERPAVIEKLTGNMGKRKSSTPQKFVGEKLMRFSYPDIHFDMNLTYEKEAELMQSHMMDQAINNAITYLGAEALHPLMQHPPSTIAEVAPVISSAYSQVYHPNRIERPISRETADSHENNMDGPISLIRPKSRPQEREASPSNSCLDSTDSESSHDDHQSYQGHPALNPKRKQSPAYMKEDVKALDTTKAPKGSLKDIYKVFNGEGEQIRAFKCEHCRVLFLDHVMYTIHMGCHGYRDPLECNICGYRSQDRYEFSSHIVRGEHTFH
IKZF2, sequence (Q96SW2 whole entry): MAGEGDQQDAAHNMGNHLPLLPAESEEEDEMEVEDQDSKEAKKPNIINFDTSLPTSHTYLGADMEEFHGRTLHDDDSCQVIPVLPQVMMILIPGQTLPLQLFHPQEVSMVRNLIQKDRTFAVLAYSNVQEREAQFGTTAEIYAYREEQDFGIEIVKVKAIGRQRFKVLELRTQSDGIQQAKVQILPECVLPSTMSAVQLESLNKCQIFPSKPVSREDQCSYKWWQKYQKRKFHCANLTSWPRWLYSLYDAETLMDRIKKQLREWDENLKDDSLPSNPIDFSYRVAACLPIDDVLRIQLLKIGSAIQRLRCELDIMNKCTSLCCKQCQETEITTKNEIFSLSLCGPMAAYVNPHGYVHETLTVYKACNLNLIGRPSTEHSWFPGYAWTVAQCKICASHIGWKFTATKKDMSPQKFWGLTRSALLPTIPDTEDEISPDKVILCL
IKZF2, sequence (Q16531 whole entry partner): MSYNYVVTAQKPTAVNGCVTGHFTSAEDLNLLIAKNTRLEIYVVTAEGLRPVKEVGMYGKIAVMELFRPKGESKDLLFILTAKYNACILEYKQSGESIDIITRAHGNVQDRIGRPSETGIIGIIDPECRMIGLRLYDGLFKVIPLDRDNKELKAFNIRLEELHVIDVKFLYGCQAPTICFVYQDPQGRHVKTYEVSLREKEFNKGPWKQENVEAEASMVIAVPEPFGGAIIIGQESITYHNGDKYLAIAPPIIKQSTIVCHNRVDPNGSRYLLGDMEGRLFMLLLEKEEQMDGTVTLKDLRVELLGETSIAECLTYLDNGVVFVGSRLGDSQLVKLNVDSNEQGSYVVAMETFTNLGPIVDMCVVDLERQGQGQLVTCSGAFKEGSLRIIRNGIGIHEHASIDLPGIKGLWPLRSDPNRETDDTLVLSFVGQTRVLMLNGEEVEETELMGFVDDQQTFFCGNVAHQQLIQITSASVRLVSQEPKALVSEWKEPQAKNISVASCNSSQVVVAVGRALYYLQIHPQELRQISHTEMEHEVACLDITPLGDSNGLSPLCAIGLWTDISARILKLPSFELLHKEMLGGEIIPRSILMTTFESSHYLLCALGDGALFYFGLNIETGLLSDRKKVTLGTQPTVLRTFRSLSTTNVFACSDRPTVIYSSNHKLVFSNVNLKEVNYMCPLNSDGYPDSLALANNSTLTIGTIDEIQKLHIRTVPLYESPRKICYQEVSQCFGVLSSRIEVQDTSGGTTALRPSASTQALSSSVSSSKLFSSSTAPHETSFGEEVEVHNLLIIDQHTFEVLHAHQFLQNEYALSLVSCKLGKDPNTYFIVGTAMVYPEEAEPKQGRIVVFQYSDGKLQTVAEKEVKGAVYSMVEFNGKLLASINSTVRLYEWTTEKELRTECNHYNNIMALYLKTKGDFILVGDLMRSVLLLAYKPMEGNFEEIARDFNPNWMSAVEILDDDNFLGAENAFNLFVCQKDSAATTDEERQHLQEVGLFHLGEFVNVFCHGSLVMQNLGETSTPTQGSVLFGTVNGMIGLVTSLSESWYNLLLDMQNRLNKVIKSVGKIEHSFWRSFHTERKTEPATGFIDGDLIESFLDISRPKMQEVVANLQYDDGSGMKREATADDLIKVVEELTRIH
T1 sequence (Q13422 whole entry): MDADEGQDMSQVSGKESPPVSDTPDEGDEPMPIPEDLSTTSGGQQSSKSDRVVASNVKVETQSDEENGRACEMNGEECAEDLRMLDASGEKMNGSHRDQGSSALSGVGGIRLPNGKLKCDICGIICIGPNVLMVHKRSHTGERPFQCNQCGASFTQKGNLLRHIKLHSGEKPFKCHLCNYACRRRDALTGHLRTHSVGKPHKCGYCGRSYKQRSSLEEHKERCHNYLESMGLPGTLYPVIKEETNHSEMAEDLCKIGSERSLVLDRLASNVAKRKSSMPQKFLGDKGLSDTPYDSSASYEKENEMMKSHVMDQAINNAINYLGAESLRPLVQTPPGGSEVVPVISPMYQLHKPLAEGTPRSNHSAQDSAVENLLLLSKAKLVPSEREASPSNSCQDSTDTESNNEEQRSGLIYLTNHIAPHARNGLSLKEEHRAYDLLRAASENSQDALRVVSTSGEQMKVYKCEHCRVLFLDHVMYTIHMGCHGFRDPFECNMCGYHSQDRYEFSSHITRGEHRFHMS
T1 sequence (Q96SW2 whole entry): as the sequence (Q96SW2 whole entry) above
T1 sequence (Q16531 whole entry partner): as the sequence (Q16531 whole entry partner) above

SMILES | DC50 ([1]; HEK293 HiBiT) | Dmax [2, 3] | DC50 ([2]; HEK293 HiBiT) | Dmax [1, 3] | IKZF1 Dmax [1, 4] | IKZF2 Dmax [2, 4]
COc1ccccc1CCN[C@H]1CCCC[C@@H]1Cc1ccc2c(c1)CN(C1CCC(=O)NC1=O)C2=O (some centres unmarked) [Example 76] | > 1000 nM | 84% | 34 nM | – | – | –
O=C1CCC(N2Cc3c(ccc(C[C@H]4CCCC[C@@H]4NCC4CC(F)(F)C4)c3F)C2=O)C(=O)N1 (stereo partly drawn) [Example 81, 3-(5-(((1R,2S)-2-(((3,3-difluorocyclobutyl)methyl)amino)cyclohexyl)methyl)-4-fluoro-1-oxoisoindolin-2-yl)piperidine-2,6-dione] | 28 nM | 96% | 4 nM | 41% | – | –
O=C1CCC(N2Cc3cc(C[C@H]4CCCC[C@@H]4NCC45CCC(CC4)CC5)ccc3C2=O)C(=O)N1 (stereo partly drawn) [Example 83, 3-(5-(((1R,2S)-2-((bicyclo[2.2.2]octan-1-ylmethyl)amino)cyclohexyl)methyl)-1-oxoisoindolin-2-yl)piperidine-2,6-dione] | > 1000 nM | 92% | 37 nM | – | – | –
O=C1CCC(N2Cc3cc(C[C@H]4CCCC[C@@H]4NC4CCC5(CC4)COC5)ccc3C2=O)C(=O)N1 (stereo partly drawn) [Example 86, 3-(5-(((1R,2S)-2-((2-oxaspiro[3.5]nonan-7-yl)amino)cyclohexyl)methyl)-1-oxoisoindolin-2-yl)piperidine-2,6-dione] | 141 nM | 97% | 12 nM | 34% | – | –
O=C1CCC(N2Cc3c(ccc(C[C@H]4CCCC[C@@H]4NC4CCCCC4)c3F)C2=O)C(=O)N1 (stereo partly drawn) [Example 88, 3-(5-(((1R,2S)-2-(cyclohexylamino)cyclohexyl)methyl)-4-fluoro-1-oxoisoindolin-2-yl)piperidine-2,6-dione] | 101 nM | 99% | 1 nM | 38% | – | –
CC(C)(C)CCN(CCC(C)(C)C)[C@H]1CCCC[C@@H]1Cc1ccc2c(c1F)CN(C1CCC(=O)NC1=O)C2=O (stereo partly drawn) [Example 90, 3-(5-(((1R,2S)-2-(bis(3,3-dimethylbutyl)amino)cyclohexyl)methyl)-4-fluoro-1-oxoisoindolin-2-yl)piperidine-2,6-dione] | > 1000 nM | 75% | 69 nM | – | – | –
O=C1CCC(N2Cc3cc(C[C@H]4OCCC[C@@H]4NC4CCC(F)(F)CC4)ccc3C2=O)C(=O)N1 (stereo partly drawn) [Example 92, 3-(5-(((2R,3S)-3-((4,4-difluorocyclohexyl)amino)tetrahydro-2H-pyran-2-yl)methyl)-1-oxoisoindolin-2-yl)piperidine-2,6-dione] | > 1000 nM | 82% | 44 nM | – | – | –
O=C1CCC(N2Cc3cc(C[C@H]4CCCC[C@@H]4NCCc4ccccc4)ccc3C2=O)C(=O)N1 (stereo partly drawn) [Example 93, 3-(1-oxo-5-(((1R,2S)-2-(phenethylamino)cyclohexyl)methyl)isoindolin-2-yl)piperidine-2,6-dione] | 39 nM | 91% | 23 nM | 22% | – | –
O=C1CCC(N2Cc3c(ccc(C[C@H]4CCCC[C@@H]4NCC45CC(C4)C5)c3F)C2=O)C(=O)N1 (some centres unmarked) [Example 96] | 173 nM | 95% | 9 nM | 35% | – | –
O=C1CCC(N2Cc3c(ccc(C[C@H]4CCCC[C@@H]4NCC4CCC(F)(F)CC4)c3F)C2=O)C(=O)N1 (some centres unmarked) [Example 99] | 68 nM | 94% | 14 nM | 37% | – | –
O=C1CCC(N2Cc3cc(C[C@H]4CCCC[C@@H]4NC4CC5CCC(C4)O5)ccc3C2=O)C(=O)N1 (some centres unmarked) [Example 112] | 56 nM | 97% | 3 nM | 30% | – | –
CN(C1CCC(F)(F)CC1)[C@H]1CCCC[C@@H]1Cc1ccc2c(c1)CN(C1CCC(=O)NC1=O)C2=O (stereo partly drawn) [Example 123, 3-(5-(((1R,2S)-2-((4,4-difluorocyclohexyl)(methyl)amino)cyclohexyl)methyl)-1-oxoisoindolin-2-yl)piperidine-2,6-dione] | > 1000 nM | 88% | 26 nM | – | – | –
O=C1CCC(N2Cc3cc(C[C@H]4CCOC[C@@H]4NC4CCC(F)(F)CC4)ccc3C2=O)C(=O)N1 (some centres unmarked) [Example 126] | > 1000 nM | 80% | 114 nM | – | – | –
O=C1CCC(N2Cc3cc(C[C@H]4CCCC[C@@H]4NC4CCc5ccccc54)ccc3C2=O)C(=O)N1 (some centres unmarked) [Example 131] | 78 nM | 96% | 4 nM | 45% | – | –
O=C1CCC(N2Cc3c(ccc(C[C@H]4CCCC[C@@H]4NC4CC5CCCC5C4)c3F)C2=O)C(=O)N1 (some centres unmarked) [Example 141] | 58 nM | 98% | 2 nM | 53% | – | –

The next lines start with the values.

DC50 ([1]; HEK293 HiBiT) | Dmax [2, 3] | DC50 ([2]; HEK293 HiBiT) | Dmax [1, 3] | IKZF1 Dmax [1, 4] | IKZF2 Dmax [2, 4] | SMILES
> 1000 nM | 89% | 37 nM | – | – | – | O=C1CCC(N2Cc3cc(C[C@H]4CCCC[C@@H]4NCC4CCOCC4)ccc3C2=O)C(=O)N1 (some centres unmarked) [Example 71]
> 1000 nM | 83% | 35 nM | – | – | – | O=C1CCC(N2Cc3cc(C[C@H]4CCCC[C@@H]4NC4COC4)ccc3C2=O)C(=O)N1 (some centres unmarked) [Example 72]
> 1000 nM | 95% | 7 nM | – | – | – | O=C1CCC(N2Cc3cc(C[C@H]4CCCC[C@@H]4NC4CCOC4)ccc3C2=O)C(=O)N1 (some centres unmarked) [Example 73]
888 nM | 95% | 7 nM | 51% | – | – | CCOC1CC(N[C@H]2CCCC[C@@H]2Cc2ccc3c(c2)CN(C2CCC(=O)NC2=O)C3=O)C1 (some centres unmarked) [Example 75]
> 1000 nM | 90% | 11 nM | – | – | – | CC(COc1ccccc1)N[C@H]1CCCC[C@@H]1Cc1ccc2c(c1)CN(C1CCC(=O)NC1=O)C2=O (some centres unmarked) [Example 77]
> 1000 nM | 92% | 16 nM | – | – | – | CCOCC(C)N[C@H]1CCCC[C@@H]1Cc1ccc2c(c1)CN(C1CCC(=O)NC1=O)C2=O (some centres unmarked) [Example 78]
299 nM | 95% | 33 nM | 32% | – | – | O=C1CCC(N2Cc3cc(C[C@H]4CCCC[C@@H]4NC4CC5(COC5)C4)ccc3C2=O)C(=O)N1 (stereo partly drawn) [Example 80, 3-(5-(((1R,2S)-2-((2-oxaspiro[3.3]heptan-6-yl)amino)cyclohexyl)methyl)-1-oxoisoindolin-2-yl)piperidine-2,6-dione]
160 nM | 97% | 17 nM | 47% | – | – | O=C1CCC(N2Cc3cc(C[C@H]4CCCC[C@@H]4NC4CCS(=O)(=O)CC4)ccc3C2=O)C(=O)N1 (stereo partly drawn) [Example 91, 3-(5-(((1R,2S)-2-((1,1-dioxidotetrahydro-2H-thiopyran-4-yl)amino)cyclohexyl)methyl)-1-oxoisoindolin-2-yl)piperidine-2,6-dione]
61 nM | 94% | 12 nM | 34% | – | – | CC1(C)CC2(CC(N[C@H]3CCCC[C@@H]3Cc3ccc4c(c3)CN(C3CCC(=O)NC3=O)C4=O)C2)C1 (some centres unmarked) [Example 100]
242 nM | 96% | 6 nM | 27% | – | – | CC(N[C@H]1CCCC[C@@H]1Cc1ccc2c(c1)CN(C1CCC(=O)NC1=O)C2=O)C1CC1 (some centres unmarked) [Example 102]
75 nM | 92% | 16 nM | 37% | – | – | O=C1CCC(N2Cc3cc(C[C@H]4CCCC[C@@H]4NCCC(F)(F)F)ccc3C2=O)C(=O)N1 (some centres unmarked) [Example 104]
76 nM | 96% | 4 nM | 31% | – | – | O=C1CCC(N2Cc3cc(C[C@H]4CCCC[C@@H]4NC4CCCC[C@@H]4F)ccc3C2=O)C(=O)N1 (some centres unmarked) [Example 105]
79 nM | – | 10 nM | – | 24% | 95% | O=C1CCC(N2Cc3cc(C[C@H]4CCCC[C@@H]4NC4CCCC[C@@H]4F)ccc3C2=O)C(=O)N1 (some centres unmarked) [Example 106]
81 nM | 96% | 3 nM | 36% | – | – | O=C1CCC(N2Cc3cc(C[C@H]4CCCC[C@@H]4NC4CCCC[C@H]4F)ccc3C2=O)C(=O)N1 (some centres unmarked) [Example 107]
> 1000 nM | 96% | 55 nM | – | – | – | CC(=O)N1CCC(N[C@H]2CCCC[C@@H]2Cc2ccc3c(c2)CN(C2CCC(=O)NC2=O)C3=O)CC1 (some centres unmarked) [Example 108]
> 1000 nM | 81% | 91 nM | – | – | – | O=C1CCC(N2Cc3cc(C[C@H]4CCCC[C@@H]4NC4CCCCC4(F)F)ccc3C2=O)C(=O)N1 (some centres unmarked) [Example 111]
15 nM | 68% | 15 nM | 72% | – | – | CC(CF)N[C@H]1CCCC[C@@H]1Cc1ccc2c(c1)CN(C1CCC(=O)NC1=O)C2=O (some centres unmarked) [Example 127]
94 nM | 98% | 18 nM | 19% | – | – | CCCCN[C@H]1CCCC[C@@H]1Cc1ccc2c(c1)CN(C1CCC(=O)NC1=O)C2=O (some centres unmarked) [Example 128]
> 1000 nM | 76% | 148 nM | – | – | – | CC(N[C@H]1CCCC[C@@H]1Cc1ccc2c(c1)CN(C1CCC(=O)NC1=O)C2=O)C(F)F (some centres unmarked) [Example 130]
66 nM | 97% | 4 nM | 45% | – | – | O=C1CCC(N2Cc3cc(C[C@H]4CCCC[C@@H]4NC4CC5CCC5C4)ccc3C2=O)C(=O)N1 (some centres unmarked) [Example 132]
132 nM | 96% | 32 nM | 30% | – | – | CC(C)(C#N)CCN[C@H]1CCCC[C@@H]1Cc1ccc2c(c1)CN(C1CCC(=O)NC1=O)C2=O (some centres unmarked) [Example 133]
> 1000 nM | 97% | 61 nM | – | – | – | COC(C)(C)CCN[C@H]1CCCC[C@@H]1Cc1ccc2c(c1)CN(C1CCC(=O)NC1=O)C2=O (some centres unmarked) [Example 134]
77 nM | 93% | 16 nM | 24% | – | – | O=C1CCC(N2Cc3cc(C[C@H]4CCCC[C@@H]4NCCCC(F)F)ccc3C2=O)C(=O)N1 (some centres unmarked) [Example 135]

— patent US11897862B2 (Gilead Sciences, Inc., priority 2022, dated 2024)
